For one series, the system named is Cotton. It is filed as in vivo. As to conditions: mc column, mepiquat chloride 12 g/ha.
A further series can be described thus: physchem. As to conditions: water.
For a further series, the system named is peach. As to conditions: low rate (0.08 mM); cited from earlier work.
The test system of a further series is horticultural plants. As to conditions: several horticultural plants; cited from earlier work.
For another series, the system named is cotton plants. As to conditions: approximately 62.5 to 500 g ai/ha assuming spray volume 500 l/ha; cited from earlier work.

Description for physchem: Formulations of the present invention were prepared as described in Example 1 and were tested for hydrolysis half-life.

For `C[N+]1(C)CCCCC1` [mepiquat chloride], in the series with Cotton, the “Frequency of Positive Yield” value worked out at 38% and the “Relative Yield (% compared to untreated)” value is listed as 102%.

As usually defined, the half-life is the time in which the quantity being followed falls by half. Read a low half-life as fast loss. For the compound `COC(=O)COC(=O)CON=C(C)C` [{[(isopropylidene)-amino]oxy}-acetic acid-2-(methoxy)-2-oxoethyl ester], in the series “physchem”, the half-life is 12 to 21 days. For the compound `O=P(O)(O)CCCl` [ethephon], the “effect on bloom and side effects in peach” value with peach was “significantly delayed bloom in peach and reduced side effects”. In addition, in the series with horticultural plants, the “effect on yields and hardiness” value was “increased the yields and hardiness of several horticultural plants”.

Turning to `NCCOC=CC(N)C(=O)O` (stereo not drawn) [aminoethoxyvinylglycine], the “improvement in a plant growth factor with increasing rate” value in the series on cotton plants is given as “As the rate of AVG treatment increased, so did the improvement”.

Source of the values: patent US6255250A, “Plant growth regulators in pyrrolidone solvents” (BASF Corporation, priority 1997, dated 2001).
